Data from US20240173389A1, “Compositions and Methods For Reducing Immune Intolerance” (LAPIX THERAPEUTICS, INC., priority 2021, published 2024).

How the values were obtained:
[1] = tested on: FoxP3+/CD4+ T-cell; experiment: Ex vivo flow cytometry of splenocytes for FoxP3+/CD4+ T-cells after FVIII treatment period (Example 1); format: in vivo, mice
Experimental: OPLT was dissolved in sterile PBS, and pH was adjusted to approximately 7.5. OPLS, a comparator compound, was dissolved in sterile PBS, and pH was adjusted to approximately 7.5. FVIII in PBS was used as a control. For treatment, FVIII was co-mixed with OPLT, OPLS or diluted in PBS before administration, as per group assignment for each animal. For re-challenge, FVIII was administered alone SC to all animals regardless of group assignment. […] For a head-to-head comparison, 5 mg/injection was selected for OPLT. FVIII was dosed at 1 μg/injection.
(§1) One week after the last dose in the treatment period, one animal from each group was selected at random for ex vivo analysis of the T-cell population. Spleens were collected and a single-cell suspension was prepared for cellular phenotyping by flow cytometry. Cells were stained and gated for CD4+ T-cells. FoxP3 expression level was evaluated for each animal.

[2] = tested on: FoxP3+/CD4+ T-cell; experiment: Ex vivo flow cytometry of splenocytes for FoxP3+/CD4+ T-cells after AAV9 treatment period (Example 3); format: in vivo, mice; settings: SC QW 4 weeks with AAV9; OPLT 5 mg, liposomal OBLT 50 μg OBLT; one animal per group
Experimental: (§2) OPLT and OBLT were dissolved in sterile PBS, and pH was adjusted to approximately 7.5. Liposomal OBLT was prepared using […]. AAV9 in PBS was used as a control. For treatment, AAV9 was co-mixed with OPLT or liposomal OBLT before administration, as per group assignment for each animal. AAV9 was administered with 5 mg of OPLT SC QW, 50 μg OBLT SC QW as liposomal OBLT or 7.2 μg OBLT PO QD as liposomal OBLT. For all SC groups, AAV9 was dosed at 10^6 particles/injection. For PO groups, AAV9 was dosed at 1.43×10^5 particles/injection.
(§3) Animals were injected with AAV9, AAV9+OPLT, or AAV9+liposomal OBLT SC QW for 4 weeks. Blood samples were collected for anti-AAV9 titer analysis after a one-week washout period from the last dose. For oral tolerance, animals were administered AAV9 or AAV9+liposomal OBLT PO, QD for 4 weeks. AAV9 was also administered SC QW to both groups during the treatment period. Blood samples were collected for anti-AAV9 titer analysis after a one-week washout period from the last dose.
as §1, with “dose,” for “dose in the treatment period,”, “ex-vivo” for “ex vivo”

[3] = tested on: B57BL6 Mice; experiment: Anti-AAV9 titer analysis in mice given AAV9 with OPLT or liposomal OBLT (Example 3); format: in vivo
Experimental: as §2, §3

[4] = tested on: FoxP3+/CD4+ T-cells; experiment: Splenocytes cultured 3 days with anti-CD3/anti-CD28 with or without OPLT, percent FoxP3+/CD4+ T-cells (Example 6); format: cell-based, C57BL/6 mice; settings: 72-hour incubation
Experimental: (§4) OPLT was dissolved in sterile PBS at 100 μM, and pH was adjusted to approximately 7.5. Splenocytes from naïve C57BL/6 mice were stained with CFSE, prepared, cultured, and dosed. Cells were seeded at 2×10^5 cells/well.
To evaluate the effects of OPLT on FoxP3+/CD4+ T-cells, splenocytes were cultured for 3 days in presence of anti-CD3/anti-CD28 with and without 1.85 μg/ml (10 μM) OPLT. Cells were harvested at the end of a 72-hour incubation period and percent FoxP3+/CD4+ T-cells was determined by flow cytometry.

[5] = tested on: TLR3; experiment: TNF-α production by splenocytes in response to TLR3 ligand poly(I:C); format: cell-based, C57BL/6 mice; settings: for TNF-α mean: 48 hours, OPLT 1.85 μg/ml, dexamethasone 100 μg/ml, rapamycin 625 μg/ml
Experimental: as §4
(§5) To evaluate the effects of OPLT on cytokine production by splenocytes in response to different TLR ligands, splenocytes were incubated with one of the following TLR ligands in triplicate: PGN, LPS, ODN CPG, dsRNA, or ssRNA, as per group assignment. Cells were then treated as follows: • Control: No treatment; • OPLT: Cells were dosed with 1.85 μg/ml; • Dexamethasone: Cells were dosed with 100 μg/ml; • Rapamycin: Cells were dosed with 625 μg/ml. Cells were incubated for 48 hours before collecting the supernatant for TNF-α analysis.
(§6) The supernatant was collected for TNF-α analysis by ELISA.

[6] = tested on: TLR4; experiment: TNF-α production by splenocytes in response to TLR4 ligand LPS; format: cell-based, C57BL/6 mice; settings: for TNF-α mean: 48 hours, OPLT 1.85 μg/ml, dexamethasone 100 μg/ml, rapamycin 625 μg/ml
Experimental: as §4, §5, §6

[7] = tested on: TLR9; experiment: TNF-α production by splenocytes in response to TLR9 ligand ODN CpG; format: cell-based, C57BL/6 mice; settings: for TNF-α mean: 48 hours, OPLT 1.85 μg/ml, dexamethasone 100 μg/ml, rapamycin 625 μg/ml
Experimental: as §4, §5, §6

N[C@@H](Cc1ccc(OP(=O)(O)O)cc1)C(=O)O [OPLT, O-phospho-L-tyrosine]
increase in FoxP3+/CD4+ compared to the FVIII alone group ([1]; 5 mg/injection co-mixed with FVIII 1 μg SC QW 4 weeks, splenocytes of one animal per group one week after last dose): 188% | increase in FoxP3+/CD4+ compared to OPLS+FVIII treatment ([1]; 5 mg/injection co-mixed with FVIII SC QW 4 weeks): 73% | FoxP3+/CD4+ T-cell (flow cytometry of splenocytes) ([1]; 5 mg/injection co-mixed with FVIII SC QW 4 weeks, one animal per group, FVIII alone 2.94): 8.47 | increase in FoxP3+/CD4+ compared to the untreated group [2]: 122% | anti-AAV9 immune response/titers versus AAV9 alone control ([3]; SC QW 4 weeks): did not elicit an immune response | animals that developed measurable anti-AAV9 antibodies ([3]; SC QW 4 weeks with AAV9, after one-week washout, AAV9 SC control 8/8): 0/8 | increase in FoxP3+/CD4+ T-cells versus untreated cells ([4]; 10 μM (1.85 μg/ml) OPLT, anti-CD3/anti-CD28): 118% | percent FoxP3+/CD4+ T-cells ([4]; 10 μM OPLT, untreated 12.7%): 27.7% | TNF-α mean ([5]; PolyI:C 0 ng/ml): 0 pg/mL | TNF-α mean ([5]; PolyI:C 1 ng/ml, CTL 0): 0 pg/mL | TNF-α mean ([5]; PolyI:C 10 ng/ml, CTL 109): 0 pg/mL | TNF-α mean ([5]; PolyI:C 100 ng/ml, CTL 162): 0 pg/mL | effect on splenocytes' TNF-α response to the TLR3 ligand poly(I:C) (in words) ([5]; compared to control at all doses): abrogated splenocytes' response to the TLR3 ligand poly(I:C) | TNF-α mean ([6]; LPS 0 ng/ml): 0 pg/mL | TNF-α mean ([6]; LPS 1 ng/ml, CTL 143): 116 pg/mL | TNF-α mean ([6]; LPS 10 ng/ml, CTL 840): 676 pg/mL | TNF-α mean ([6]; LPS 100 ng/ml, CTL 1091): 838 pg/mL | effect on splenocytes' TNF-α response to the TLR4 ligand LPS (in words) ([6]; compared to control at all doses, 10 μM OPLT): did not abrogate splenocytes' response to LPS | TNF-α mean ([7]; ODN CpG 0 ng/ml): 0 pg/mL | TNF-α mean ([7]; ODN CpG 1 ng/ml, CTL 0): 0 pg/mL | TNF-α mean ([7]; ODN CpG 10 ng/ml, CTL 338): 0 pg/mL | TNF-α mean ([7]; ODN CpG 100 ng/ml, CTL 1220): 1178 pg/mL | effect on splenocytes' TNF-α response to the TLR9 ligand ODN CpG (in words) ([7]; high dose of ODN CpG): did not | effect on splenocytes' TNF-α response to the TLR9 ligand ODN CpG (in words) ([7]; mid-dose of ODN CpG, statistically significant): reduced splenocytes' response to mid-dose of the TLR9 ligand ODN CpG
